Key:
Recombinant human CASP1 = target: T1, Recombinant human CASP1 (Homo sapiens, UniProt P29466); assay: CASP1 enzymatic assay: cleavage of glucocorticoid receptor (NR3C1) by recombinant CASP1; assay type: biochemical; conditions: for CASP1-induced cleavage of the glucocorticoid receptor (NR3C1): recombinant human CASP1, 30° C., inhibitor 10 μM unless otherwise indicated, FIG. 3A, 3C
T1 construct: purchased Enzo Life Sciences BML-AK701-0001
T1 sequence (P29466 120-297): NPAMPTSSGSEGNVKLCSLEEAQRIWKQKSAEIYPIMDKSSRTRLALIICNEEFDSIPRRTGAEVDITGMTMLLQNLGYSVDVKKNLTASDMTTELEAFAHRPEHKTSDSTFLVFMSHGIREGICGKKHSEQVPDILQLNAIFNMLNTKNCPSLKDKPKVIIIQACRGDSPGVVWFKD
T1 sequence (P29466 317-404): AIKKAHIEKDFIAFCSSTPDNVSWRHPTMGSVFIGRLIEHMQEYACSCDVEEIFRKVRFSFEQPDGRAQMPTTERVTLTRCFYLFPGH
Procedure: Recombinant human CASP1 (100-200 U, where U=1 pmol/min at 30° C., 200 μM YVAD-pNA (SEQ ID NO: 21)) from a CASP1 assay kit for drug discovery (Enzo Life Sciences, Farmingdale, N.Y., catalog number BML-AK701-0001) was incubated at 30° C. with wild-type or mutated GR in the presence (10 μM unless otherwise indicated) or absence of inhibitors, (Ac-YVAD-CHO (SEQ ID NO: 18), Enzo Life Sciences, Farmingdale, N.Y., catalog number BML-P403-9090), VX765, VRT-043198).
Cells were pelleted by centrifugation, washed once with PBS and lysed with RIPA buffer or caspase-1 assay buffer (Enzo Life Sciences, Farmingdale, N.Y. catalog number KI-111), equal amounts of proteins (1-20 μg) separated by 4-12% Novex Bis-Tris gels (Life Technologies, Grand Island, N.Y.), and then transblotted to PVDF membranes (Life Technologies, Grand Island, N.Y.). Anti-GR (1:1000-1:10,000, BD catalog number 611227), anti-DDK […] (1:1000, Origene catalog number TA50011), anti-Bim (1:1000, Cell Signalling catalog number 2819) or anti-Tubulin (1:1000, Santa Cruz, sc-8035) were used as primary antibodies followed by appropriate secondary HRP-conjugated IgG (1:1000, Dako) and immunocomplexes were visualized by chemiluminescence.

Nalm6 leukemia cell line = assay: MTT drug sensitivity assay in Nalm6 cells with enforced CASP1 expression or empty vector; assay type: cell-based, human; conditions: for increase in resistance (LC50) by CASP1 over-expression: Nalm6 cells transduced with CASP1, after activation of NLRP3 inflammasome (LPS/ATP), average
Procedure: Leukemia cells were isolated at diagnosis from patient bone marrow aspirates. If the leukemia cell percentage from diagnostic bone marrow samples was less than ninety percent, magnetic activated cell sorting (Miltenyl Biotec, Auburn, Calif.) was performed to further enrich for leukemia cells. If red cell contamination was greater than thirty percent, red blood cell lysis was performed. Cells were centrifuged at 300 g for five minutes and resuspended at a concentration of two million cells per milliliter. Eighty microliters of this leukemia cell suspension was then plated into each experimental well of round-bottom 96-well plates. Twenty microliters of decreasing concentrations of prednisolone were added and the plates were incubated for ninety-six hours in a humidified incubator containing 5% CO2 at 37° C. For the final six hours, ten microliters of 5 milligram per milliliter MTT (3-4,5-dimethylthiazol-2,5-diphenyl tetrazolium bromide) was added to each experimental well. Drug resistance assays in cell lines were performed using between 0.25 and 2.5 million cells per milliliter. Assays were developed and performed as for patient sample assays. LC50 values were determined as previously described (Holleman et al., 2004).
Full-length CASP1 (Origene, Rockville, Md., catalog # RC218364; GenBank Accession No. NM_033292) was subcloned into a lentiviral backbone (System Biosciences, Mountain View, Calif., catalog number CD527A-1), in frame with a T2A linked puromycin resistance gene. Lentivirus was produced in 293T cells and the Nalm6 leukemia cell line was transduced. 72 hours post transduction, cells were selected with 2.5 micrograms per milliliter puromycin. Where indicated cells were treated with 10 μg/mL LPS (InvivoGen, San Diego, Calif.) followed 2 hours later by 5 mM ATP (Roche, Pleasanton, Calif.).

[1] = test system: NALM-6 cells overexpressing CASP1; assay type: cell-based, human; conditions: CASP1 overexpressing ALL (NALM-6) cells transduced with the named shRNA, +LPS/ATP, MTT, mean±S.E.M., n=4; read-out: LC50 (glucocorticoid sensitivity, prednisolone)
Procedure: The sensitivity (LC50) of shCASP1 and shNT cells to prednisolone was determined by MTT assays (Panel B). […] Error bars represent S.E.M; n=4 replicate experiments.
NALM-6 cells overexpressing CASP1 co-transfected with either non-targeting scrambled hairpin (shNT; SEQ ID NO: 13) or shRNA hairpins targeting CASP1 (shCASP1; SEQ ID NO: 14) were stably transduced with lentiviral vectors (Addgene plasmid 25890; Sigma-Aldrich, St. Louis, Mo.) containing a wild-type glucocorticoid receptor (SEQ ID NO: 16) or a glucocorticoid receptor in which both CASP1 cleavage sites had been eliminated (double mutagenized GR, DM-GR (SEQ ID NO: 17)).
Cells were centrifuged at 300 g for five minutes and resuspended at a concentration of two million cells per milliliter. Eighty microliters of this leukemia cell suspension was then plated into each experimental well of round-bottom 96-well plates. Twenty microliters of decreasing concentrations of prednisolone were added and the plates were incubated for ninety-six hours in a humidified incubator containing 5% CO2 at 37° C. For the final six hours, ten microliters of 5 milligram per milliliter MTT (3-4,5-dimethylthiazol-2,5-diphenyl tetrazolium bromide) was added to each experimental well. […] LC50 values were determined as previously described (Holleman et al., 2004). […]

Compound | CASP1-induced cleavage of the glucocorticoid receptor (NR3C1) (Recombinant human CASP1) | increase in resistance (LC50) by CASP1 over-expression (Nalm6 leukemia cell line) [fold] | also measured
CC(C)(C)[C@@H](NC(=O)c1ccc(N)c(Cl)c1)C(=O)N1CCC[C@H]1C(=O)N[C@H](C=O)CC(=O)O [VRT043198, (S)-3-((S)-1-((R)-2-(4-amino-3-chlorobenzamido)-3,3-dimethylbutanoyl)pyrrolidine-2-carboxamido)-4-oxobutanoic acid] | inhibited |  | inhibitory activity on CASP1 cleavage of NR3C1 compared with VX-765 (Recombinant human CASP1; FIG. 3C): higher inhibitory activity
C[C@@H]1C[C@H]2[C@@H]3CCC4=CC(=O)C=C[C@]4(C)[C@@]3(F)[C@@H](O)C[C@]2(C)[C@@]1(O)C(=O)CO [dexamethasone] |  | 5.3 | 
CCO[C@H]1OC(=O)C[C@@H]1NC(=O)[C@@H]1CCCN1C(=O)[C@H](NC(=O)c1ccc(N)c(Cl)c1)C(C)(C)C [VX765, (S)-1-((R)-2-(4-amino-3-chlorobenzamido)-3,3-dimethylbutanoyl)-N-((2S,3S)-2-ethoxy-5-oxotetrahydro-furan-3-yl)pyrrolidine-2-carboxamide] | inhibited |  | 
shNT: non-targeting scrambled shRNA hairpin, control (CCGGCAACAAGATGAAGAGCACCAACTCGAGTTGGTGCTCTTCATCTTGTTGTTTTT) |  |  | CC50 [1]: 570 ± 423 µM
C[C@]12C=CC(=O)C=C1CC[C@@H]1[C@@H]2[C@@H](O)C[C@@]2(C)[C@H]1CC[C@]2(O)C(=O)CO [prednisolone] |  | 16.9 | difference in sensitivity on activation of the NLRP3 inflammasome and CASP1 (Nalm6 leukemia cell line; Nalm6 cells transduced with empty vector control virus): no difference
